Results: ChEMBL document CHEMBL1201862, “PubChem BioAssay data set” (2004)
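Five compound concentrations were applied to cells in 96-well plates for 48 hours; endpoints were derived by simple linear interpolation of the resulting dose-response curve. At the GI50, growth is halved.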 Active and inactive are the calls of the source. Cut-off read from the data, not from the text of the source: active = GI50 up to about 1.1 µM and inactive = higher.

Experiments:
Assay in all cases: growth of human tumour cells (NCI), 48 h
SF-539 = system: SF-539
SK-MEL-28 = system: SK-MEL-28
CAKI-1 = system: CAKI-1
UO-31 = system: UO-31
BT-549 = system: BT-549
A549 = system: A549
Malme-3M = system: Malme-3M
OVCAR-5 = system: OVCAR-5
U-251 = system: U-251
LOX IMVI = system: LOX IMVI
SNB-19 = system: SNB-19
MDA-MB-231 = system: MDA-MB-231
MOLT-4 = system: MOLT-4
NCI-H522 = system: NCI-H522
SK-MEL-5 = system: SK-MEL-5
SW-620 = system: SW-620
Hs-578T = system: Hs-578T
T47D = system: T47D
SN12C = system: SN12C

Measured: GI50

CCn1c(-c2ccccc2)cs/c1=N\C(P(=O)(O)O)P(=O)(O)O
inactive: SF-539 > 100 µM | SK-MEL-28 > 100 µM | CAKI-1 > 100 µM | UO-31 > 100 µM | BT-549 > 100 µM | A549 > 100 µM | Malme-3M > 100 µM | OVCAR-5 > 100 µM | U-251 > 100 µM | LOX IMVI > 100 µM | SNB-19 > 100 µM | MDA-MB-231 > 100 µM | MOLT-4 > 100 µM | NCI-H522 > 100 µM | SK-MEL-5 > 100 µM | SW-620 > 100 µM | Hs-578T > 100 µM

C[N+](C)(C)CCCSc1nc2ccccc2[nH]1
inactive: SK-MEL-28 > 100 µM | CAKI-1 > 100 µM | T47D > 100 µM | UO-31 > 100 µM | BT-549 > 100 µM | A549 > 100 µM | Malme-3M > 100 µM | OVCAR-5 89.7 µM | U-251 > 100 µM | SN12C > 100 µM | LOX IMVI > 100 µM | SNB-19 > 100 µM | MDA-MB-231 > 100 µM | MOLT-4 > 100 µM | NCI-H522 > 100 µM | SK-MEL-5 > 100 µM | SW-620 > 100 µM | Hs-578T > 100 µM

CCNC1=C(NC(=O)c2ccc(F)cc2)C(=O)c2ccccc2C1=O
inactive: SF-539 72.1 µM | SK-MEL-28 > 100 µM | T47D 47.1 µM | BT-549 > 100 µM | A549 70.8 µM | Malme-3M 19.2 µM | OVCAR-5 > 100 µM | SN12C 38.7 µM | SNB-19 > 100 µM | MDA-MB-231 44.8 µM | MOLT-4 30.1 µM | NCI-H522 21 µM | SK-MEL-5 35 µM | SW-620 32.2 µM | Hs-578T > 100 µM

Cc1ccc(Cc2cc(N3CCN(c4cccc(Cl)c4)CC3)nnc2C)cc1
inactive: SF-539 38.1 µM | SK-MEL-28 > 100 µM | CAKI-1 > 100 µM | T47D 24.3 µM | UO-31 > 100 µM | BT-549 > 100 µM | A549 43 µM | OVCAR-5 > 100 µM | U-251 32.7 µM | SN12C 56.4 µM | SNB-19 > 100 µM | MDA-MB-231 > 100 µM | NCI-H522 18.7 µM | SK-MEL-5 11.5 µM | SW-620 34.3 µM | Hs-578T 54 µM

C=C(CO)[C@H]1CC/C(C)=C/CC/C(C)=C/C/C=C(\C)[C@H](O)C1
inactive: SF-539 23.5 µM | SK-MEL-28 16 µM | CAKI-1 31.3 µM | T47D 48 µM | UO-31 30.9 µM | BT-549 23.1 µM | A549 42 µM | OVCAR-5 47.1 µM | U-251 19.1 µM | SN12C 33.3 µM | LOX IMVI 27.5 µM | SNB-19 47.4 µM | MDA-MB-231 21.6 µM | MOLT-4 18.3 µM | NCI-H522 16.9 µM | SK-MEL-5 18.9 µM | SW-620 20.2 µM | Hs-578T 25.5 µM

CC(C)(C)OC(=O)C1CCC/C1=N/Nc1ccc([N+](=O)[O-])cc1[N+](=O)[O-] (configuration not stated)
inactive: SK-MEL-28 54.7 µM | CAKI-1 39.4 µM | T47D 16.3 µM | UO-31 17.6 µM | BT-549 24.9 µM | A549 31.9 µM | Malme-3M 65.5 µM | OVCAR-5 43.3 µM | U-251 22 µM | SN12C 40.7 µM | LOX IMVI 17.7 µM | SNB-19 41.5 µM | MDA-MB-231 20 µM | MOLT-4 17.7 µM | NCI-H522 18.8 µM | SK-MEL-5 13.9 µM | SW-620 27.9 µM | Hs-578T 48.2 µM

CC(=O)CC(=O)N1CCSC1=S
inactive: SF-539 > 10 µM | SK-MEL-28 > 10 µM | T47D 6.67 µM | UO-31 > 10 µM | BT-549 > 10 µM | A549 > 10 µM | Malme-3M > 10 µM | OVCAR-5 > 10 µM | U-251 > 10 µM | SN12C > 10 µM | LOX IMVI > 10 µM | SNB-19 > 10 µM | MDA-MB-231 > 10 µM | MOLT-4 > 10 µM | SK-MEL-5 > 10 µM | SW-620 > 10 µM | Hs-578T > 10 µM

Cc1ccc(C2(c3ccc(C)cc3)SC(=C(C#N)C#N)c3ccccc32)cc1
inactive: SF-539 > 100 µM | SK-MEL-28 > 100 µM | T47D > 100 µM | UO-31 > 100 µM | BT-549 > 100 µM | A549 > 100 µM | Malme-3M 87.9 µM | OVCAR-5 > 100 µM | U-251 18.1 µM | SN12C > 100 µM | SNB-19 > 100 µM | MDA-MB-231 > 100 µM | MOLT-4 21.1 µM | SK-MEL-5 > 100 µM | SW-620 6.75 µM | Hs-578T > 100 µM

Cn1nc2ccc([N+](=O)[O-])c(Cn3nnc4ccccc43)c2n1
inactive: SF-539 > 100 µM | SK-MEL-28 > 100 µM | CAKI-1 > 100 µM | T47D > 100 µM | UO-31 > 100 µM | BT-549 > 100 µM | A549 > 100 µM | Malme-3M > 100 µM | OVCAR-5 > 100 µM | U-251 > 100 µM | SN12C > 100 µM | LOX IMVI 82.8 µM | SNB-19 > 100 µM | MDA-MB-231 > 100 µM | MOLT-4 > 100 µM | SK-MEL-5 79.4 µM | SW-620 > 100 µM | Hs-578T 93.1 µM

O=c1c2c3c(sc2nc(S)n1-c1ccccc1)CCCc1ccc([N+](=O)[O-])cc1-3
inactive: SK-MEL-28 > 100 µM | CAKI-1 > 100 µM | T47D 17.5 µM | UO-31 26.9 µM | BT-549 24.8 µM | A549 42.9 µM | Malme-3M 35.7 µM | OVCAR-5 > 100 µM | U-251 39.8 µM | SN12C 37.7 µM | LOX IMVI 19.3 µM | SNB-19 40.8 µM | MDA-MB-231 > 100 µM | MOLT-4 21.3 µM | NCI-H522 13.9 µM | SK-MEL-5 25.7 µM | SW-620 10.4 µM | Hs-578T 87.3 µM

CCn1c(=O)c2c(=O)[nH][nH]c2c2ccccc21
inactive: SF-539 > 100 µM | SK-MEL-28 > 100 µM | UO-31 > 100 µM | BT-549 > 100 µM | A549 > 100 µM | Malme-3M > 100 µM | OVCAR-5 > 100 µM | U-251 > 100 µM | SN12C > 100 µM | LOX IMVI > 100 µM | SNB-19 > 100 µM | MDA-MB-231 > 100 µM | MOLT-4 > 100 µM | NCI-H522 > 100 µM | SK-MEL-5 > 100 µM | SW-620 > 100 µM | Hs-578T > 100 µM

CC1CCCc2c(C#N)c(N)nc(-c3ccc(Cl)cc3)c21 (configuration not stated)
inactive: SF-539 14.5 µM | SK-MEL-28 27.6 µM | CAKI-1 68.7 µM | T47D 5.96 µM | UO-31 13.8 µM | BT-549 17.9 µM | Malme-3M 18.7 µM | OVCAR-5 15.6 µM | U-251 22.2 µM | SN12C 20.3 µM | LOX IMVI 16.6 µM | SNB-19 39.4 µM | MDA-MB-231 22.1 µM | MOLT-4 7.69 µM | SK-MEL-5 9.38 µM | SW-620 53.6 µM | Hs-578T 32.4 µM

O=C(c1ccccn1)C1(N2CCCCC2)CCCCC1
inactive: SF-539 > 100 µM | SK-MEL-28 > 100 µM | CAKI-1 > 100 µM | T47D 46 µM | UO-31 > 100 µM | BT-549 > 100 µM | A549 > 100 µM | OVCAR-5 > 100 µM | U-251 > 100 µM | SN12C > 100 µM | LOX IMVI > 100 µM | SNB-19 > 100 µM | MDA-MB-231 > 100 µM | MOLT-4 > 100 µM | NCI-H522 15.5 µM | SK-MEL-5 > 100 µM | SW-620 > 100 µM | Hs-578T 15.5 µM

C[C@@]1(O)C2C3CC4C5C3C1[C@](O)(C42)[C@H]5Br (some centres not stated)
inactive: SF-539 > 100 µM | SK-MEL-28 > 100 µM | CAKI-1 > 100 µM | T47D > 100 µM | UO-31 > 100 µM | BT-549 > 100 µM | A549 > 100 µM | OVCAR-5 > 100 µM | U-251 > 100 µM | SN12C > 100 µM | LOX IMVI > 100 µM | SNB-19 > 100 µM | MDA-MB-231 > 100 µM | MOLT-4 > 100 µM | NCI-H522 > 100 µM | SK-MEL-5 > 100 µM | SW-620 > 100 µM | Hs-578T > 100 µM

CN1c2ccccc2S(=O)(=O)n2c(COc3ccc(Cl)cc3)nnc21
inactive: SF-539 35.5 µM | SK-MEL-28 > 100 µM | CAKI-1 85.7 µM | T47D > 100 µM | UO-31 > 100 µM | BT-549 50.6 µM | A549 > 100 µM | OVCAR-5 > 100 µM | U-251 44 µM | SN12C > 100 µM | LOX IMVI > 100 µM | SNB-19 57.4 µM | MDA-MB-231 44.8 µM | MOLT-4 > 100 µM | NCI-H522 31.3 µM | SK-MEL-5 > 100 µM | SW-620 > 100 µM | Hs-578T 43.4 µM

CCOC(=O)CCC(NC(=O)c1ccc(Oc2nc3ccccc3nc2C(=O)OCC)cc1)C(=O)OCC (configuration not stated)
inactive: SF-539 > 100 µM | SK-MEL-28 > 100 µM | CAKI-1 > 100 µM | T47D > 100 µM | UO-31 > 100 µM | BT-549 > 100 µM | A549 > 100 µM | OVCAR-5 > 100 µM | U-251 71.3 µM | SN12C > 100 µM | LOX IMVI > 100 µM | SNB-19 85.5 µM | MDA-MB-231 40.4 µM | MOLT-4 > 100 µM | NCI-H522 > 100 µM | SK-MEL-5 > 100 µM | SW-620 > 100 µM | Hs-578T > 100 µM
